Data set [1] has as its system Plasmodium falciparum. The data set can be described thus: Antiplasmodial activity against chloroquine and sulfadoxine-resistant and mefloquine-sensitive Plasmodium falciparum W2 infected in human erythrocytes by anti-HRP2 assay. It counts as functional, organism-based.
Data set [2] in a line: Cytotoxicity against African green monkey BGM cells incubated for 18 hrs by neutral red assay. The data set is classed as cell-based. The conditions noted are these: chlorocebus aethiops, read-out: MLC50.
A short description of data set [3]: Selectivity index, ratio of MLC50 for African green monkey BGM cells to IC50 for chloroquine and sulfadoxine-resistant and mefloquine-sensitive Plasmodium falciparum W2. The conditions noted are these: read-out: Selectivity Index. It counts as toxicity, cell-based.
For data set [4], the system named is Plasmodium berghei. The data set can be described thus: Antiplasmodial activity against Plasmodium berghei NK65 infected in mouse assessed as inhibition of inhibition of parasitemia at 10 mg/kg, po treated for 3 consecutive days 24 hrs after parasite infection and measured on day 7 after inoculation by Giemsa staining based microscopy. It counts as functional.

The subject of data set [5] is Plasmodium berghei. Put plainly: Antiplasmodial activity against Plasmodium berghei NK65 infected in mouse assessed as inhibition of inhibition of parasitemia at 10 mg/kg, po treated for 3 consecutive days 24 hrs after parasite infection and measured on day 5 after inoculation by Giemsa staining based microscopy. The data set is classed as functional.
Data set [6] deals with Plasmodium berghei. Put plainly: Antiplasmodial activity against Plasmodium berghei NK65 infected in mouse assessed as inhibition of inhibition of parasitemia at 20 mg/kg, po treated for 3 consecutive days 24 hrs after parasite infection and measured on day 7 after inoculation by Giemsa staining based microscopy. It counts as functional.
In data set [7] the test system is Plasmodium berghei. Put plainly: Antiplasmodial activity against Plasmodium berghei NK65 infected in mouse assessed as inhibition of inhibition of parasitemia at 20 mg/kg, po treated for 3 consecutive days 24 hrs after parasite infection and measured on day 5 after inoculation by Giemsa staining based microscopy. The data set is classed as functional.
Data set [8] concerns Plasmodium berghei. The data set can be described thus: Antiplasmodial activity against Plasmodium berghei NK65 infected in mouse assessed as inhibition of inhibition of parasitemia at 1 mg/kg, po treated for 3 consecutive days 24 hrs after parasite infection and measured on day 5 after inoculation by Giemsa staining based microscopy. It counts as functional.
In data set [9] the test system is Plasmodium berghei. The data set can be described thus: Antiplasmodial activity against Plasmodium berghei NK65 infected in mouse assessed as inhibition of inhibition of parasitemia at 1 mg/kg, po treated for 3 consecutive days 24 hrs after parasite infection and measured on day 7 after inoculation by Giemsa staining based microscopy. The data set is classed as functional.

The IC50 is the midpoint of a concentration-inhibition curve. Usually inhibition in vivo stands for the percentage by which the read-out fell short of the control.

Take `O=S(=O)(NCCNc1ccnc2cc(Cl)ccc12)c1ccc(Cl)cc1`: it took 0.68 µM to reach half-maximal inhibition in [1] (IC50). The CC50 at 18 h in data set [2] amounted to 116 µM. Besides, the selectivity ratio in data set [3] came to 171.
As to `O=S(=O)(NCCNc1ccnc2cc(Cl)ccc12)c1ccccc1`, half-maximal inhibition in data set [1] (IC50) was put at 1.63 µM. For the same molecule, the CC50 at 18 h in [2] turned out to be 122 µM. Also, in [3], the selectivity ratio turned out to be 74.7.
Turning to `Cc1ccc(S(=O)(=O)NCCNc2ccnc3cc(Cl)ccc23)cc1`, in data set [1], the IC50 stood at 0.48 µM. Besides, in [2], the CC50 at 18 h was 125 µM. For the same molecule, the selectivity ratio in [3] was 261.
In data set [1], `O=S(=O)(NCCNc1ccnc2cc(Cl)ccc12)c1ccc(Br)cc1` registered an IC50 of 1.21 µM. Further, the CC50 at 18 h in data set [2] came out at 88.8 µM. For the same molecule, the selectivity ratio in data set [3] came to 73.3.
For the molecule `O=S(=O)(NCCNc1ccnc2cc(Cl)ccc12)c1ccc(F)cc1`, inhibition in data set [1] was half-maximal at 1.13 µM (IC50). The CC50 at 18 h in data set [2] turned out to be 203 µM. Further, the selectivity ratio in data set [3] stood at 180.
In turn, `O=S(=O)(NCCCNc1ccnc2cc(Cl)ccc12)c1ccccc1` returned a 50% inhibitory concentration (IC50) in data set [1] of 0.35 µM. For the same molecule, in data set [2], the CC50 at 18 h came to 275 µM. Besides, the selectivity ratio in [3] stood at 784.
In data set [1], `Cc1ccc(S(=O)(=O)NCCCNc2ccnc3cc(Cl)ccc23)cc1` yielded an IC50 of 0.28 µM. For the same molecule, in data set [2], the CC50 at 18 h amounted to 95 µM. In data set [3], the selectivity ratio was 339.
As for `O=S(=O)(NCCCNc1ccnc2cc(Cl)ccc12)c1ccc(Cl)cc1`, in data set [1], the IC50 turned out to be 0.27 µM. In addition, the CC50 at 18 h in [2] is 103 µM. Further, the selectivity ratio in data set [3] amounted to 380.
In turn, `O=S(=O)(NCCCNc1ccnc2cc(Cl)ccc12)c1ccc(Br)cc1` gave an IC50 in [1] of 0.29 µM. The CC50 at 18 h in data set [2] is 22 µM. Besides, the selectivity ratio in [3] is 75.8.
`O=S(=O)(NCCCNc1ccnc2cc(Cl)ccc12)c1ccc(F)cc1`: the results for the inhibition in vivo at 10 mg/kg in data set [4] and in data set [5] were 27% and 47%, respectively. For the same molecule, the IC50 in data set [1] came to 0.1 µM. The CC50 at 18 h in data set [2] came to 339 µM. Further, the selectivity ratio in data set [3] is 3390.
On to `O=S(=O)(NCCCCNc1ccnc2cc(Cl)ccc12)c1ccccc1`, for which the midpoint of inhibition in data set [1], the IC50, lay at 0.4 µM. Also, the CC50 at 18 h in data set [2] is > 257 µM. Further, in [3], the selectivity ratio is > 642.
As for `O=S(=O)(NCCCCNc1ccnc2cc(Cl)ccc12)c1ccc(Cl)cc1`, the inhibition in vivo at 10 mg/kg is 33% in data set [4] and 49% in [5]. This molecule also had an IC50 in data set [1] of 0.09 µM. The CC50 at 18 h in data set [2] amounted to 99.2 µM. Moreover, in data set [3], the selectivity ratio came to 1100.
`O=S(=O)(NCCCCNc1ccnc2cc(Cl)ccc12)c1ccc(Br)cc1` gave an IC50 in [1] of 0.15 µM. The CC50 at 18 h in data set [2] stood at 14.9 µM. For the same molecule, the selectivity ratio in data set [3] came to 99.3.
Take `O=S(=O)(NCCCCNc1ccnc2cc(Cl)ccc12)c1ccc(F)cc1`: the inhibition in vivo at 10 mg/kg was 7% in data set [4] and 30% in data set [5]. Besides, the IC50 in data set [1] came to 0.15 µM. The CC50 at 18 h in [2] was found to be 155 µM. Besides, the selectivity ratio in [3] is 1030.
As for `Cc1ccc(S(=O)(=O)NCCCCNc2ccnc3cc(Cl)ccc23)cc1`, the inhibition in vivo at 10 mg/kg amounted to 0% in data set [4] and 27% in [5]. The same molecule returned an IC50 in data set [1] of 0.05 µM. Besides, the CC50 at 18 h in data set [2] is 107 µM. For the same molecule, the selectivity ratio in [3] turned out to be 2490.
`CCN(CC)CCCC(C)Nc1ccnc2cc(Cl)ccc12` (centres undefined) [CHLOROQUINE]: the inhibition in vivo at 20 mg/kg was 76% in data set [6] and 93% in [7].
On to `COc1ncnc(NS(=O)(=O)c2ccc(N)cc2)c1OC` [SULFADOXINE], for which the inhibition in vivo at 1 mg/kg in data set [8] amounted to 100%; in data set [9], 96%. Besides, the IC50 in [1] was > 15.5 µM. Also, the CC50 at 18 h in data set [2] was > 310 µM.

These data come from ChEMBL document CHEMBL3600375, “Anti-Plasmodium falciparum activity of quinoline-sulfonamide hybrids” (Bioorg Med Chem, 2015).
